Values of other authors in patent publication US20120003119A1, “ANTIMICROBIAL PEPTIDES” (priority 2007, published 2012).

What was measured:
animal red blood cells = details: melittin isolated from bee venom
[1] = combined with either magainin I or magainin II in a 1:1 molar ratio
Pseudomonas aeruginosa = details: tested against the bacteria Pseudomonas aeruginosa; relative to XPF

For `CC[C@H](C)[C@H](NC(=O)CN)C(=O)NCC(=O)N[C@@H](C)C(=O)N[C@H](C(=O)N[C@@H](CC(C)C)C(=O)N[C@@H](CCCCN)C(=O)N[C@H](C(=O)N[C@@H](CC(C)C)C(=O)N[C@H](C(=O)N[C@H](C(=O)NCC(=O)N[C@@H](CC(C)C)C(=O)N1CCC[C@H]1C(=O)N[C@@H](C)C(=O)N[C@@H](CC(C)C)C(=O)N[C@H](C(=O)N[C@@H](CO)C(=O)N[C@@H](Cc1c[nH]c2ccccc12)C(=O)N[C@H](C(=O)N[C@@H](CCCCN)C(=O)N[C@@H](CCCNC(=N)N)C(=O)N[C@@H](CCCCN)C(=O)N[C@@H](CCCNC(=N)N)C(=O)N[C@@H](CCC(N)=O)C(=O)N[C@@H](CCC(N)=O)C(N)=O)[C@@H](C)CC)[C@@H](C)CC)[C@@H](C)O)[C@@H](C)O)C(C)C)C(C)C` [melittin], which “lytic to both microorganisms and animal red blood cells” value (animal red blood cells) is on record?
The value was “very lytic”.

What does the source list for PGLa?
antimicrobial activity increased [1]: 20-50 fold; times more active than XPF (Pseudomonas aeruginosa): 4-5 times
